{"source": "patent US20240365781A1", "about": "“SYNERGISTICALLY EFFECTIVE HERBICIDE COMPOSITION COMPRISING PELARGONIC ACID AND FLAZASULFURON” (Belchim Crop Protection NV, priority 2017, published 2024)", "type_in_all_cases": "in vivo", "key": {"Geranium dissectum": {"tested_on": "Geranium dissectum", "test": "post-emergence test, pot trial (Examples 1-5)", "conditions": "28 d, PT, pelargonic acid 10880 g/ha, 16 L/ha", "excerpt": "(§1) The expected activity of a given combination of two or three herbicides can be calculated as follows according to a calculation method by Colby (cf. COLBY, S. R.: “Calculating synergistic and antagonistic responses of herbicide combinations”, • Weeds 15, pages 20-22, 1967): • If X=% damage by herbicide (A) at an application rate of m g/ha, • Y=% damage by herbicide (B) at an application rate of n g/ha, • E=the expected damage by herbicides (A) and (B) at application rates of m and n […] and, • then for a combination:\n(§2) Individual compositions comprising pelargonic acid or flazasulfuron are compared with a herbicide composition according to the invention comprising pelargonic acid and flazasulfuron.\n(§3) Herbicidal activity was determined by performing a post-emergence test. […] The corresponding mixture was in the form of a spray liquor. Besides, spray liquors of individual compositions comprising pelargonic acid or flazasulfuron were used.\n(§4) Tests were performed on test fields (field trials) or in pots (pot trials)."}, "Matricaria chamomilla": {"tested_on": "Matricaria chamomilla", "test": "post-emergence test, pot trial (Examples 1-5)", "conditions": "bigger plants, 28 d, PT, pelargonic acid 10880 g/ha, 16 L/ha", "excerpt": "as §1, §2, §3, §4"}, "Poa annua [1]": {"tested_on": "Poa annua", "test": "post-emergence test, pot trial (Examples 1-5)", "conditions": "28 d, PT; pelargonic acid 10880 g/ha, flazasulfuron 50 g/ha; 16 L/ha", "excerpt": "as §1, §2, §3, §4"}, "Setaria pumila": {"tested_on": "Setaria pumila", "test": "post-emergence test, pot trial (Examples 1-5)", "conditions": "young plants, 28 d, PT, pelargonic acid 10880 g/ha, 16 L/ha", "excerpt": "as §1, §2, §3, §4"}, "Trifolium repens": {"tested_on": "Trifolium repens", "test": "post-emergence test, pot trial (Examples 1-5)", "conditions": "28 d, PT; pelargonic acid 10880 g/ha, flazasulfuron 50 g/ha; 16 L/ha", "excerpt": "as §1, §2, §3, §4"}, "Capsella bursa-pastoris": {"tested_on": "Capsella bursa-pastoris", "test": "post-emergence field trial under rows of apple trees, 150-200 L water/ha (Examples 10-12)", "experimental": "(§5) Herbicidal activity was determined by performing a post-emergence test. […] The corresponding mixture was in the form of a spray solution. Besides, spray solutions of individual compositions comprising pelargonic acid or flazasulfuron were used.\n(§6) The spray solution was applied on plants of unwanted vegetation present on fields where perennial crops were grown.\n(§7) After 5 to 88 days after application of the spray solution, the degree of damage to the unwanted vegetation is rated in % of plants of unwanted vegetation that were killed. Tests were performed on test fields (field trials)."}, "Chenopodium album": {"tested_on": "Chenopodium album", "test": "post-emergence field trial under rows of apple trees, 150-200 L water/ha (Examples 10-12)", "experimental": "as §5, §6, §7"}, "Lolium multiflorum": {"tested_on": "Lolium multiflorum", "test": "post-emergence field trial under rows of apple trees, 150-200 L water/ha (Examples 10-12)", "experimental": "as §5, §6, §7"}, "Poa annua [2]": {"tested_on": "Poa annua", "test": "post-emergence field trial under rows of apple trees, 150-200 L water/ha (Examples 10-12)", "experimental": "as §5, §6, §7"}}}
{"smiles": "CCCCCCCCC(=O)O", "note": "[Pelargonic acid, nonanoic acid]", "values": [{"measurement": "herbicidal effect", "setting": "Geranium dissectum; bigger plants, flazasulfuron 50 g/ha", "result": 24, "unit": "%"}, {"measurement": "herbicidal effect", "setting": "Geranium dissectum; young plants, flazasulfuron 25 g/ha", "result": 32, "unit": "%"}, {"measurement": "herbicidal effect", "setting": "Geranium dissectum; young plants, flazasulfuron 50 g/ha", "result": 32, "unit": "%"}, {"measurement": "herbicidal effect", "setting": "Matricaria chamomilla; flazasulfuron 25 g/ha", "result": 0, "unit": "%"}, {"measurement": "herbicidal effect", "setting": "Matricaria chamomilla; flazasulfuron 50 g/ha", "result": 0, "unit": "%"}, {"measurement": "herbicidal effect", "setting": "Poa annua [1]", "result": 0, "unit": "%"}, {"measurement": "herbicidal effect", "setting": "Setaria pumila; flazasulfuron 25 g/ha", "result": 40, "unit": "%"}, {"measurement": "herbicidal effect", "setting": "Setaria pumila; flazasulfuron 50 g/ha", "result": 40, "unit": "%"}, {"measurement": "herbicidal effect", "setting": "Trifolium repens", "result": 0, "unit": "%"}, {"measurement": "herbicidal effect (%)", "setting": "Capsella bursa-pastoris; Capsella bursa-pastoris/6 d, 5440 g of active compound/ha", "result": 18, "unit": "%"}, {"measurement": "herbicidal effect (%)", "setting": "Capsella bursa-pastoris; Capsella bursa-pastoris/6 d, 8160 g of active compound/ha", "result": 45, "unit": "%"}, {"measurement": "herbicidal effect (%)", "setting": "Capsella bursa-pastoris; Capsella bursa-pastoris/6 d, 10880 g of active compound/ha", "result": 45, "unit": "%"}, {"measurement": "herbicidal effect (%)", "setting": "Capsella bursa-pastoris; Capsella bursa-pastoris/16 d, 5440 g of active compound/ha", "result": 53, "unit": "%"}, {"measurement": "herbicidal effect (%)", "setting": "Capsella bursa-pastoris; Capsella bursa-pastoris/16 d, 8160 g of active compound/ha", "result": 40, "unit": "%"}, {"measurement": "herbicidal effect (%)", "setting": "Capsella bursa-pastoris; Capsella bursa-pastoris/16 d, 10880 g of active compound/ha", "result": 55, "unit": "%"}, {"measurement": "herbicidal effect (%)", "setting": "Capsella bursa-pastoris; Capsella bursa-pastoris/30 d, 5440 g of active compound/ha", "result": 55, "unit": "%"}, {"measurement": "herbicidal effect (%)", "setting": "Capsella bursa-pastoris; Capsella bursa-pastoris/30 d, 8160 g of active compound/ha", "result": 53, "unit": "%"}, {"measurement": "herbicidal effect (%)", "setting": "Capsella bursa-pastoris; Capsella bursa-pastoris/30 d, 10880 g of active compound/ha", "result": 60, "unit": "%"}, {"measurement": "herbicidal effect (%)", "setting": "Capsella bursa-pastoris; Capsella bursa-pastoris/57 d, 5440 g of active compound/ha", "result": 0, "unit": "%"}, {"measurement": "herbicidal effect (%)", "setting": "Capsella bursa-pastoris; Capsella bursa-pastoris/57 d, 8160 g of active compound/ha", "result": 0, "unit": "%"}, {"measurement": "herbicidal effect (%)", "setting": "Capsella bursa-pastoris; Capsella bursa-pastoris/57 d, 10880 g of active compound/ha", "result": 0, "unit": "%"}, {"measurement": "herbicidal effect (%)", "setting": "Chenopodium album; Chenopodium album/6 d, 5440 g of active compound/ha", "result": 20, "unit": "%"}, {"measurement": "herbicidal effect (%)", "setting": "Chenopodium album; Chenopodium album/6 d, 8160 g of active compound/ha", "result": 50, "unit": "%"}, {"measurement": "herbicidal effect (%)", "setting": "Chenopodium album; Chenopodium album/6 d, 10880 g of active compound/ha", "result": 60, "unit": "%"}, {"measurement": "herbicidal effect (%)", "setting": "Chenopodium album; Chenopodium album/16 d, 5440 g of active compound/ha", "result": 48, "unit": "%"}, {"measurement": "herbicidal effect (%)", "setting": "Chenopodium album; Chenopodium album/16 d, 8160 g of active compound/ha", "result": 63, "unit": "%"}, {"measurement": "herbicidal effect (%)", "setting": "Chenopodium album; Chenopodium album/16 d, 10880 g of active compound/ha", "result": 63, "unit": "%"}, {"measurement": "herbicidal effect (%)", "setting": "Chenopodium album; Chenopodium album/30 d, 5440 g of active compound/ha", "result": 55, "unit": "%"}, {"measurement": "herbicidal effect (%)", "setting": "Chenopodium album; Chenopodium album/30 d, 8160 g of active compound/ha", "result": 58, "unit": "%"}, {"measurement": "herbicidal effect (%)", "setting": "Chenopodium album; Chenopodium album/30 d, 10880 g of active compound/ha", "result": 70, "unit": "%"}, {"measurement": "herbicidal effect (%)", "setting": "Chenopodium album; Chenopodium album/57 d, 5440 g of active compound/ha", "result": 0, "unit": "%"}, {"measurement": "herbicidal effect (%)", "setting": "Chenopodium album; Chenopodium album/57 d, 8160 g of active compound/ha", "result": 0, "unit": "%"}, {"measurement": "herbicidal effect (%)", "setting": "Chenopodium album; Chenopodium album/57 d, 10880 g of active compound/ha", "result": 0, "unit": "%"}, {"measurement": "herbicidal effect (%)", "setting": "Chenopodium album; Chenopodium album/78 d, 5440 g of active compound/ha", "result": 0, "unit": "%"}, {"measurement": "herbicidal effect (%)", "setting": "Chenopodium album; Chenopodium album/78 d, 8160 g of active compound/ha", "result": 0, "unit": "%"}, {"measurement": "herbicidal effect (%)", "setting": "Chenopodium album; Chenopodium album/78 d, 10880 g of active compound/ha", "result": 0, "unit": "%"}, {"measurement": "herbicidal effect (%)", "setting": "Lolium multiflorum; Lolium multiflorum/5 d, 5440 g of active compound/ha", "result": 3, "unit": "%"}, {"measurement": "herbicidal effect (%)", "setting": "Lolium multiflorum; Lolium multiflorum/5 d, 10880 g of active compound/ha", "result": 13, "unit": "%"}, {"measurement": "herbicidal effect (%)", "setting": "Lolium multiflorum; Lolium multiflorum/18 d, 5440 g of active compound/ha", "result": 0, "unit": "%"}, {"measurement": "herbicidal effect (%)", "setting": "Lolium multiflorum; Lolium multiflorum/18 d, 8160 g of active compound/ha", "result": 0, "unit": "%"}, {"measurement": "herbicidal effect (%)", "setting": "Lolium multiflorum; Lolium multiflorum/18 d, 10880 g of active compound/ha", "result": 0, "unit": "%"}, {"measurement": "herbicidal effect (%)", "setting": "Lolium multiflorum; Lolium multiflorum/32 d, 5440 g of active compound/ha", "result": 0, "unit": "%"}, {"measurement": "herbicidal effect (%)", "setting": "Lolium multiflorum; Lolium multiflorum/32 d, 8160 g of active compound/ha", "result": 0, "unit": "%"}, {"measurement": "herbicidal effect (%)", "setting": "Lolium multiflorum; Lolium multiflorum/32 d, 10880 g of active compound/ha", "result": 0, "unit": "%"}, {"measurement": "herbicidal effect (%)", "setting": "Lolium multiflorum; Lolium multiflorum/61 d, 5440 g of active compound/ha", "result": 0, "unit": "%"}, {"measurement": "herbicidal effect (%)", "setting": "Lolium multiflorum; Lolium multiflorum/61 d, 8160 g of active compound/ha", "result": 0, "unit": "%"}, {"measurement": "herbicidal effect (%)", "setting": "Lolium multiflorum; Lolium multiflorum/61 d, 10880 g of active compound/ha", "result": 0, "unit": "%"}, {"measurement": "herbicidal effect (%)", "setting": "Lolium multiflorum; Lolium multiflorum/88 d, 5440 g of active compound/ha", "result": 0, "unit": "%"}, {"measurement": "herbicidal effect (%)", "setting": "Lolium multiflorum; Lolium multiflorum/88 d, 8160 g of active compound/ha", "result": 0, "unit": "%"}, {"measurement": "herbicidal effect (%)", "setting": "Lolium multiflorum; Lolium multiflorum/88 d, 10880 g of active compound/ha", "result": 0, "unit": "%"}, {"measurement": "herbicidal effect (%)", "setting": "Poa annua [2]; Poa annua/6 d, 5440 g of active compound/ha", "result": 23, "unit": "%"}, {"measurement": "herbicidal effect (%)", "setting": "Poa annua [2]; Poa annua/6 d, 8160 g of active compound/ha", "result": 40, "unit": "%"}, {"measurement": "herbicidal effect (%)", "setting": "Poa annua [2]; Poa annua/6 d, 10880 g of active compound/ha", "result": 45, "unit": "%"}, {"measurement": "herbicidal effect (%)", "setting": "Poa annua [2]; Poa annua/16 d, 5440 g of active compound/ha", "result": 55, "unit": "%"}, {"measurement": "herbicidal effect (%)", "setting": "Poa annua [2]; Poa annua/16 d, 8160 g of active compound/ha", "result": 58, "unit": "%"}, {"measurement": "herbicidal effect (%)", "setting": "Poa annua [2]; Poa annua/16 d, 10880 g of active compound/ha", "result": 60, "unit": "%"}, {"measurement": "herbicidal effect (%)", "setting": "Poa annua [2]; Poa annua/30 d, 5440 g of active compound/ha", "result": 53, "unit": "%"}, {"measurement": "herbicidal effect (%)", "setting": "Poa annua [2]; Poa annua/30 d, 8160 g of active compound/ha", "result": 55, "unit": "%"}, {"measurement": "herbicidal effect (%)", "setting": "Poa annua [2]; Poa annua/30 d, 10880 g of active compound/ha", "result": 65, "unit": "%"}, {"measurement": "herbicidal effect (%)", "setting": "Poa annua [2]; Poa annua/57 d, 5440 g of active compound/ha", "result": 0, "unit": "%"}, {"measurement": "herbicidal effect (%)", "setting": "Poa annua [2]; Poa annua/57 d, 8160 g of active compound/ha", "result": 0, "unit": "%"}]}
